According to patent publication US9387204B2, “Fused bicyclic imidazoles” (BAYER INTELLECTUAL PROPERTY GmbH, priority 2007, dated 2016):
Where two headings read alike, the source gives them in different places.

Assays:
phospho-Akt (Ser473) = experiment: Cellular PI3K/Akt pathway assay (phospho-Akt ELISA); format: cell-based; settings: MCF7 cells, β-Heregulin stimulated, 48 h, phospho-Akt1 (Ser473) ELISA
Description: In order to study the cellular activity of the compounds according to the present invention, an Enzyme Linked Immunosorbent Assay (ELISA)-based assay has been used specific phospho-AKT. The assay is based on a Sandwich ELISA kit (PathScan™ Phospho-Akt1 (Ser473); Cell Signaling, USA; #7160).
The ELISA Kit detects endogenous levels of phosphorylated Akt protein. A phospho-Akt (Ser473) antibody (Cell Signaling, USA; #9271) has been coated onto the microwells. After incubation with cell lysates, the coated antibody captures the phosphorylated Akt protein. Following extensive washing, Akt1 monoclonal antibody (Cell Signaling, USA; #2967) is added to detect the captured phospho-Akt1 protein. HRP-linked anti-mouse antibody (HRP: horseradish peroxidase; Cell Signaling, USA; #7076) is then used to recognize the bound detection antibody. HRP substrate (=3,3′,5,5′-tetramethylbenzidine (TMB); Cell Signaling, USA; #7160) is added to develop colour. The magnitude of optical density for this developed color is proportional to the quantity of phosphorylated Akt protein. MCF7 cells (ATCC HTB-22) are seeded into 96 well fate bottom plates at a density of 10000 cells/well. 24 hours after seeding, the cells are serum starved using low-serum medium (IMEM media including 0.1% charcoal treated FCS (FCS: fetal calf serum)). […] To stimulate Akt phosphorylation, β-Heregulin (20 ng/ml β-HRG) is added in parallel to the compounds. Wells containing unstimulated control cells (no β-Heregulin stimulation) are incubated with or without the diluted compound. Wells containing untreated control cells (no compound) are filled with medium containing 0.5% v:v DMSO and are or are not stimulated with β-Heregulin.
Cells are harvested and lysed with brief sonification in 1× cell lysis buffer (20 mM Tris (pH7.5), 150 mM NaCl, 1 mM ethylene diaminetetraacetate (EDTA), 1 mM ethylene glycolbis(2-aminoethyl)-N,N,N′,N′-tetraacetic acid (EGTA), 1 vol % Triton X-100, 2.5 mM sodium pyrophosphate, 1 mM β-glycerolphosphate, 1 mM Na3VO4, 1 μg/ml leupeptin). The lysate is centrifuged for 10 min. at 4° C. and the supernatant is transferred to a new tube. 100 μl of sample diluent (0.1 vol % Tween-20, 0.1 vol % sodium azide in phosphate buffered saline (PBS)) are added to a microcentrifuge tube and 100 μl of cell lysate are transferred into the tube and vortexed. 100 μl of each diluted cell lysate are added to the appropriate ELISA well, and incubated overnight at 4° C. The plates are washed 4 times with 1× wash buffer (1 vol % tween-20, 0.33 vol % thymol, in PBS). Next 100 μl of detection antibody (Akt1 (2H10) monoclonal detection antibody; Cell Signaling, USA; #2967) are added to each well and incubation continued for 1 h at 37° C. The washing procedure is repeated between each step. 100 μl of secondary antibody (anti-mouse IgG HRP-linked antibody; Cell Signaling, USA; #7076) are added to each well and incubated for 30 min. at 37° C. Than, 100 μl of TMB substrate (0.05% 3,3′,5,5′ tetramethylbenzidine, 0.1% hydrogen peroxide, complex polypeptides in a buffered solution; Cell Signaling, USA; #7160) are added to each well and incubated for 30 min. at 25° C. Finally 100 μl of STOP solution (0.05 vol % α and β unsaturated carbonyl compound) are added to each well and the plate are shaked gently. The absorbance is measured at ? 450 nm (Wallac Victor2; Perkin Elmer, USA) within 30 min. after adding the STOP solution. The analysis of the data is performed using a statistical program (Excel; Microsoft, USA). Preferred compounds show an inhibitory activity towards Akt phosphorylation below 10 μM.

A549 cells [1] = test system: A549 cells
Description: (§1) The anti-proliferative activity of the compounds as described herein, is evaluated using the OvCAR3, HCT116 and A549 cell lines and the Alamar Blue (Resazurin) cell viability assay (O'Brien et al. Eur J Biochem 267, 5421-5426, 2000). Resazurin is reduced to the fluorescent resorufin by cellular dehydrogenase activity, correlating with viable, proliferating cells. Test compounds are dissolved as 10 mM solutions in DMSO and subsequently diluted. Cells like HCT116 or A549 cells were seeded into 96 well flat bottom plates at a density of 10000 cells/well (OvCAR3 cells), 1000 cells/well (HCT116 cells) or 2000 cells/well (A549 cells) in a volume of 200 μl/well. 24 hours after seeding, 1 μl each of the compound dilutions are added into each well of the 96 well plates. Each compound dilution is tested as at least as duplicates. Wells containing untreated control cells were filled with 200 μl DMEM (Dulbecco's Modified Eagle Medium) containing 0.5 vol % v:v DMSO. The cells are then incubated with the substances for 72 h at 37° C. in a humidified atmosphere containing 5 vol % CO2. To determine the viability of the cells, 20 μl of a Resazurin solution (90 mg/l) are added. After 4 h incubation at 37° C., the fluorescence is measured by extinction at ? =544 nm and an emission of ? =590 nm (Wallac Victor2; Perkin Elmer, USA). For the calculation of the cell viability, the emission value from untreated cells is set as 100% viability and the fluorescence intensity of treated cells are set in relation to the values of untreated cells. Viabilities are expressed as % values. The corresponding IC50 values of the compounds for cytotoxic activity are determined from the concentration-effect curves by means of non-linear regression. The analysis of the data is performed using a biostatistical program (Graph Pad Prism, USA).

OvCAR3 cells = experiment: Cellular proliferation/cytotoxicity assay (Alamar Blue), OvCAR3 cells; format: cell-based; settings: Homo sapiens, OVCAR-3, 72 h, Alamar Blue (Resazurin), read-out: Anti-proliferative/Cytotoxic activity (OvCAR3 cells)
Text: Viabilities are expressed as % values.

A549 cells [2] = experiment: Cellular proliferation/cytotoxicity assay (Alamar Blue), A549 cells; settings: read-out: Anti-proliferative/Cytotoxic activity (A549 cells)
Description: as §1

[3] = A549 cells, 72 h, Alamar Blue (Resazurin)

| IC50 (phospho-Akt (Ser473)) [nM] | IC50 (A549 cells [1]) [µM] | SMILES | IC50 (A549 cells [2]; Homo sapiens, A549, 72 h) [µM] | other results |
| --- | --- | --- | --- | --- |
| < 1000 | < 10 | Cc1ccc(-c2nnc(C3CCN(Cc4ccc(-c5nc6c(C#N)cccn6c5-c5ccccc5)cc4)CC3)[nH]2)nc1 [Example 71, ′2-[4-({4-[5-(5-methylpyridin-2-yl)-4H-1,2,4-triazol-3-yl]piperidin-1-yl}methyl)phenyl]-3-phenylimidazo[1,2-a]pyridine-8-carbonitrile] |  |  |
|  |  | N=C(N)c1cccn2c(-c3ccccc3)c(-c3ccc(CN4CCC(c5n[nH]c(-c6ccccn6)n5)CC4)cc3)nc12 [Example 33, 3-phenyl-2-(4-{[4-(5-pyridin-2-yl-1,2,4-triazol-3-yl)piperidin-1-yl]methyl}phenyl)imidazo[1,2-a]pyridine-8-carboximidamide] | < 10 | IC50 (OvCAR3 cells): < 10 µM |
|  |  | N#Cc1cccn2c(-c3ccccc3)c(-c3ccc(CN4CCC(c5n[nH]c(-c6ccccn6)n5)CC4)cc3)nc12 [Example 5, 3-phenyl-2-(4-{[4-(5-pyridin-2-yl-1,2,4-triazol-3-yl)piperidin-1-yl]methyl}phenyl)imidazo[1,2-a]pyridine-8-carbonitrile] | < 10 | IC50 (OvCAR3 cells): < 10 µM |
|  |  | NC(=O)c1cccn2c(-c3ccccc3)c(-c3ccc(CN4CCC(c5n[nH]c(-c6ccccn6)n5)CC4)cc3)nc12 [Example 40, 3-phenyl-2-(4-{[4-(5-pyridin-2-yl-1,2,4-triazol-3-yl)piperidin-1-yl]methyl}phenyl)imidazo[1,2-a]pyridine-8-carboxamide] | > 10 | IC50 (OvCAR3 cells): < 10 µM |
| < 1000 | > 10 | N#Cc1cccn2c(-c3ccccc3)c(-c3ccc(CN4CCC(c5nnc(-c6cccs6)[nH]5)CC4)cc3)nc12 [Example 98, ′3-phenyl-2-[4-({4-[5-(2-thienyl)-4H-1,2,4-triazol-3-yl]piperidin-1-yl}methyl)phenyl]imidazo[1,2-a]pyridine-8-carbonitrile] |  |  |
| < 1000 |  | Cc1cccc(-c2nnc(C3CCN(Cc4ccc(-c5nc6sccn6c5-c5ccccc5)cc4)CC3)[nH]2)n1 [Example 66, ′6-[4-({4-[5-(6-methylpyridin-2-yl)-4H-1,2,4-triazol-3-yl]piperidin-1-yl}methyl)phenyl]-5-phenylimidazo[2,1-b][1,3]thiazole] |  | IC50 (A549 cells [2]; [3]): < 10 µM |
| < 1000 | < 10 | N#Cc1cccn2c(-c3ccccc3)c(-c3ccc(CN4CCC(c5nnc(-c6ccncc6)[nH]5)CC4)cc3)nc12 [Example 59, ′3-phenyl-2-(4-{[4-(5-pyridin-4-yl-4H-1,2,4-triazol-3-yl)piperidin-1-yl]methyl}phenyl)imidazo[1,2-a]pyridine-8-carbonitrile] |  |  |
|  |  | N#Cc1cccn2c(-c3ccccc3)c(-c3ccc(CN4CCC(c5nnc(-c6ncccn6)[nH]5)CC4)cc3)nc12 [Example 77, 3-phenyl-2-[4-({4-[5-(pyrimidin-2-yl)-4H-1,2,4-triazol-3-yl]piperidin-1-yl}methyl)phenyl]imidazo[1,2-a]pyridine-8-carbonitrile] | > 10 | IC50 (phospho-Akt (Ser473); Homo sapiens): < 1000 nM |
| < 1000 | < 10 | N#Cc1cccn2c(-c3ccccc3)c(-c3ccc(CN4CCC(c5nnc(-c6ccc[nH]6)[nH]5)CC4)cc3)nc12 [Example 105, ′3-phenyl-2-[4-({4-[5-(1H-pyrrol-2-yl)-4H-1,2,4-triazol-3-yl]piperidin-1-yl}methyl)phenyl]imidazo[1,2-a]pyridine-8-carbonitrile] |  |  |
|  |  | Cc1cccc(-c2nnc(C3CCN(Cc4ccc(-c5nc6cc(C#N)ccn6c5-c5ccccc5)cc4)CC3)[nH]2)n1 [Example 61, 2-[4-({4-[5-(6-methylpyridin-2-yl)-4H-1,2,4-triazol-3-yl]piperidin-1-yl}methyl)phenyl]-3-phenylimidazo[1,2-a]pyridine-7-carbonitrile] | > 10 | IC50 (phospho-Akt (Ser473); Homo sapiens): < 1000 nM |
|  |  | COC(=O)c1ccn2c(-c3ccccc3)c(-c3ccc(CN4CCC(c5nnc(-c6ccccn6)[nH]5)CC4)cc3)nc2c1 [Example 124, methyl 3-phenyl-2-[4-({4-[5-(pyridin-2-yl)-4H-1,2,4-triazol-3-yl]piperidin-1-yl}methyl)phenyl]imidazo[1,2-a]pyridine-7-carboxylate] | > 10 | IC50 (phospho-Akt (Ser473); Homo sapiens): < 1000 nM |
| < 1000 |  | c1ccc(-c2c(-c3ccc(CN4CCC(c5nnc(-c6ccco6)[nH]5)CC4)cc3)nc3sccn23)cc1 [Example 93, ′6-[4-({4-[5-(2-furyl)-4H-1,2,4-triazol-3-yl]piperidin-1-yl}methyl)phenyl]-5-phenylimidazo[2,1-b][1,3]thiazole] |  | IC50 (A549 cells [2]; [3]): < 10 µM |
|  |  | N#Cc1cccn2c(-c3ccccc3)c(-c3ccc(CN4CCC(c5nnc(-c6ccccc6)[nH]5)CC4)cc3)nc12 [Example 117, 3-phenyl-2-(4-{[4-(5-phenyl-4H-1,2,4-triazol-3-yl)piperidin-1-yl]methyl}phenyl)imidazo[1,2-a]pyridine-8-carbonitrile] | > 10 | IC50 (phospho-Akt (Ser473); Homo sapiens): < 1000 nM |
| < 1000 | < 10 | COc1ccn2c(-c3ccccc3)c(-c3ccc(CN4CCC(c5nnc(-c6cccc(C)n6)[nH]5)CC4)cc3)nc2c1 [Example 68, ′7-methoxy-2-[4-({4-[5-(6-methylpyridin-2-yl)-4H-1,2,4-triazol-3-yl]piperidin-1-yl}methyl)phenyl]-3-phenylimidazo[1,2-a]pyridine] |  |  |
|  |  | Clc1ccc2nc(-c3ccc(CN4CCC(c5n[nH]c(-c6ccccn6)n5)CC4)cc3)c(-c3ccccc3)n2n1 [Example 31, 6-chloro-3-phenyl-2-(4-{[4-(5-pyridin-2-yl-1,2,4-triazol-3-yl)piperidin-1-yl]methyl}phenyl)imidazo[1,2-b]pyridazine] | > 10 | IC50 (OvCAR3 cells): < 10 µM |
